Where a name gives a salt, the structure may show the parent alone. Read-outs that look alike come from different tables or passages of the source.

The target of the assay is T1, METTL3/14 (Homo sapiens, UniProt Q86U44).
T1 construct: The enzyme used was full-length his-tagged METTL3; His; made in house
The assay is described as follows: METTL3/14 methyltransferase assay (METTL3_14 RFMS, RapidFire mass spectrometry).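 Also: recombinant His-tagged METTL3 with FLAG-tagged METTL14 from baculovirus, SAH product quantified by mass spectrometry against isotope-labelled internal standards, 60 min at room temperature, scaled between no-RNA and DMSO-only wells.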 In kind it is biochemical.

Where [1] appears, read: 5 nM METTL3/14, 0.2 μM RNA substrate, 0.5 μM SAM, lower limit of the assay IC50=5 nM, Compounds 1-62, read-out: METTL3_14 RFMS IC50.

T1 sequence (Q86U44 whole entry): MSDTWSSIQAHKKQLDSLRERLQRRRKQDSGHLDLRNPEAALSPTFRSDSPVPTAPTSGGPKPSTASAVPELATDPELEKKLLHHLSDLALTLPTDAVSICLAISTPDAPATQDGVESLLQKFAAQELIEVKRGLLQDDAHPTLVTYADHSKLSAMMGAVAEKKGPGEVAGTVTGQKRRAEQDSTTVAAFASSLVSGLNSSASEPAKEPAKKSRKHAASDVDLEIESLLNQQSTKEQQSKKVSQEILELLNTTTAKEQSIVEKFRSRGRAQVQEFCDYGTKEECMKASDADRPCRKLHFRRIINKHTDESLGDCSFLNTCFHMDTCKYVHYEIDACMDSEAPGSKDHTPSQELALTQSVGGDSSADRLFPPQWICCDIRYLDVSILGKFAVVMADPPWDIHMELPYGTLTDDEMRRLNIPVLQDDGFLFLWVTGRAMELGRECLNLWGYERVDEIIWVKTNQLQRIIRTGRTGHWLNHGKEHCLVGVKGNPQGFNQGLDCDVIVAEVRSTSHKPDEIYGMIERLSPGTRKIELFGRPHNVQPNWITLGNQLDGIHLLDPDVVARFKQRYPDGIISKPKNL
T1 sequence (Q9HCE5 whole entry partner): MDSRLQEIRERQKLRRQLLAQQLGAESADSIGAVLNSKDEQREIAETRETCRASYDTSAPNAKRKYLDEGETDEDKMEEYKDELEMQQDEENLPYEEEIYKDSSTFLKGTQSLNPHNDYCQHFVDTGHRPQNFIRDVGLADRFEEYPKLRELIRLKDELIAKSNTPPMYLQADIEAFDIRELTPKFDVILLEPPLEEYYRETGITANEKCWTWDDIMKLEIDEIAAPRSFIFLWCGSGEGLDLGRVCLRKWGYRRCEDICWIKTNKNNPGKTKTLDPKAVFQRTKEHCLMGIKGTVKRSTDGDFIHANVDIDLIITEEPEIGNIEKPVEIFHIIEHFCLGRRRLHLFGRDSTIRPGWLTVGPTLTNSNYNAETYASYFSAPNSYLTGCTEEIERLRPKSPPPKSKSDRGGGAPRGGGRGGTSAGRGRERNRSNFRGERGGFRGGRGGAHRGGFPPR

On to `O=C(NCc1cn2cc([C@H]3COC[C@@H](C4CCCCC4)N3)ccc2n1)c1cccc2[nH]ncc12` (racemic) [Example 231, N-({6-[(3S,5R)-5-cyclohexylmorpholin-3-yl]imidazo[1,2-a]pyridin-2-yl}methyl)-1H-indazole-4-carboxamide], for which the IC50 (read-out: METTL3_14 RFMS IC50) is 1.22 µM.
Take `O=C(NCc1cn2ccc(Br)cc2n1)c1cccc2[nH]ncc12` [Compound 2, N-({7-bromoimidazo[1,2-a]pyridin-2-yl}methyl)-1H-indazole-4-carboxamide]: the IC50 under setting [1] came to 9.84 µM.
`O=C(NCc1cn2cc(Br)ccc2n1)c1cccc2[nH]ncc12` [Compound 3, N-({6-bromoimidazo[1,2-a]pyridin-2-yl}methyl)-1H-indazole-4-carboxamide]: under setting [1], the IC50 was 4.66 µM.
The same measure, in the same setting: then `O=C(NCc1cn2cc(Cl)ccc2n1)c1cccc2[nH]ncc12` [Compound 4, N-({6-chloroimidazo[1,2-a]pyridin-2-yl}methyl)-1H-indazole-4-carboxamide], with 6.07 µM; and `O=C(NCc1cn2ccc(F)cc2n1)c1cccc2[nH]ncc12` [Compound 5, N-({7-fluoroimidazo[1,2-a]pyridin-2-yl}methyl)-1H-indazole-4-carboxamide], with 9.45 µM; and `O=C(NCc1cn2cc(F)ccc2n1)c1cccc2[nH]ncc12` [Compound 6, N-({6-fluoroimidazo[1,2-a]pyridin-2-yl}methyl)-1H-indazole-4-carboxamide], with 9.12 µM.
Same read-out and setting: as for `COc1ccn2cc(CNC(=O)c3cccc4[nH]ncc34)nc2c1` [Compound 7, N-({7-methoxyimidazo[1,2-a]pyridin-2-yl}methyl)-1H-indazole-4-carboxamide], the figure is 2.67 µM.
Same read-out and setting: as for `Cc1ccc2nc(CNC(=O)c3cc(-c4ccn[nH]4)cc4[nH]ncc34)cn2c1` [Compound 8, N-({6-methylimidazo[1,2-a]pyridin-2-yl}methyl)-6-(1H-pyrazol-5-yl)-1H-indazole-4-carboxamide], the figure is 4.56 µM.
For the compound `Cc1ccc2nc(CNC(=O)c3cc(Br)cc4[nH]ncc34)cn2c1` [Compound 10, 6-bromo-N-({6-methylimidazo[1,2-a]pyridin-2-yl}methyl)-1H-indazole-4-carboxamide], under setting [1], the IC50 was 1.61 µM.
Turning to `Cc1ccn2cc(CNC(=O)c3cc(Br)cc4[nH]ncc34)nc2c1` [Compound 11, 6-bromo-N-({7-methylimidazo[1,2-a]pyridin-2-yl}methyl)-1H-indazole-4-carboxamide], the IC50 under setting [1] was determined as 4.1 µM.
Consider `Cc1ccc2nc(CNC(=O)c3cc(=O)c4ccccc4o3)cn2c1` [Compound 12, N-({6-methylimidazo[1,2-a]pyridin-2-yl}methyl)-4-oxo-4H-chromene-2-carboxamide], for which the concentration for half-maximal inhibition (IC50) under setting [1] was determined as 1.41 µM.
As for `O=C(NCc1cn2ccccc2n1)c1cc(=O)c2ccccc2o1` [Compound 13], the IC50 under setting [1] amounted to 4.18 µM.
As to `C#Cc1cc(C(=O)NCc2cn3cc(C)ccc3n2)c2cn[nH]c2c1` [Compound 14, 6-ethynyl-N-({6-methylimidazo[1,2-a]pyridin-2-yl}methyl)-1H-indazole-4-carboxamide], under “read-out: METTL3_14 RFMS IC50”, the IC50 turned out to be 5.9 µM.
On to `Cc1ccc2nc(CNC(=O)c3cc(=O)n4ccccc4n3)cn2c1` [Compound 15, N-({6-methylimidazo[1,2-a]pyridin-2-yl}methyl)-4-oxo-4H-pyrido[1,2-a]pyrimidine-2-carboxamide], for which the IC50 by setting is: under setting [1], 0.536 µM; (primary enzyme screen, inhibition of RNA methyltransferase activity, lower limit of the assay is IC50=5 nM, read-out: IC50) 0.52 µM.
As to `Cc1ccn2cc(CNC(=O)c3cc(=O)n4ccccc4n3)nc2c1` [Compound 17, N-({7-methylimidazo[1,2-a]pyridin-2-yl}methyl)-4-oxo-4H-pyrido[1,2-a]pyrimidine-2-carboxamide], under setting [1], the IC50 was 2.24 µM.
Consider `N#Cc1ccc2nc(CNC(=O)c3cc(=O)n4ccccc4n3)cn2c1` [Compound 18, N-({6-cyanoimidazo[1,2-a]pyridin-2-yl}methyl)-4-oxo-4H-pyrido[1,2-a]pyrimidine-2-carboxamide], for which the IC50 under setting [1] was 1.86 µM.
On the same count and under the same terms, then `COc1ccn2c(=O)cc(C(=O)NCc3cn4cc(C)ccc4n3)nc2c1` [Compound 19, 8-methoxy-N-({6-methylimidazo[1,2-a]pyridin-2-yl}methyl)-4-oxo-4H-pyrido[1,2-a]pyrimidine-2-carboxamide], with 2.6 µM.
In the case of `Cc1ccc2nc(CNC(=O)c3ccc4[nH]ncc4c3)cn2c1` [Compound 20, N-({6-methylimidazo[1,2-a]pyridin-2-yl}methyl)-1H-indazole-5-carboxamide], the IC50 under setting [1] came to 8.41 µM.
Same read-out and setting: as for `Cc1ccc2nc(CNC(=O)c3cc(=O)n4cc(Cl)ccc4n3)cn2c1` [Compound 21, 7-chloro-N-({6-methylimidazo[1,2-a]pyridin-2-yl}methyl)-4-oxo-4H-pyrido[1,2-a]pyrimidine-2-carboxamide], the figure is 3.06 µM; as for `O=C(NCc1cn2cc(F)ccc2n1)c1cc(=O)n2ccccc2n1` [Compound 22, N-({6-fluoroimidazo[1,2-a]pyridin-2-yl}methyl)-4-oxo-4H-pyrido[1,2-a]pyrimidine-2-carboxamide], 2.21 µM; as for `O=C(NCc1cn2cc(Br)ccc2n1)c1cc(=O)n2ccccc2n1` [Compound 23, N-({6-bromoimidazo[1,2-a]pyridin-2-yl}methyl)-4-oxo-4H-pyrido[1,2-a]pyrimidine-2-carboxamide], 1.79 µM.
Same read-out and setting: as for `COc1ccc2nc(CNC(=O)c3cc(=O)n4ccccc4n3)cn2c1` [Compound 24, N-({6-methoxyimidazo[1,2-a]pyridin-2-yl}methyl)-4-oxo-4H-pyrido[1,2-a]pyrimidine-2-carboxamide], the figure is 6.77 µM.
Still for that read-out and setting: as for `COc1ccn2cc(CNC(=O)c3cc(=O)n4ccccc4n3)nc2c1` [Compound 25, N-({7-methoxyimidazo[1,2-a]pyridin-2-yl}methyl)-4-oxo-4H-pyrido[1,2-a]pyrimidine-2-carboxamide], the figure is 0.543 µM.
`O=C(NCc1cn2ccccc2n1)c1cc(=O)n2ccccc2n1` [Compound 26]: under setting [1], the IC50 was 2.06 µM.
The same measure, in the same setting: then `Cc1cccn2cc(CNC(=O)c3cc(=O)n4ccccc4n3)nc12` [Compound 27, N-({8-methylimidazo[1,2-a]pyridin-2-yl}methyl)-4-oxo-4H-pyrido[1,2-a]pyrimidine-2-carboxamide], with 6.61 µM.
On the same count and under the same terms, as for `O=C(NCc1cn2ccc(Br)cc2n1)c1cc(=O)n2ccccc2n1` [Compound 29, N-({7-bromoimidazo[1,2-a]pyridin-2-yl}methyl)-4-oxo-4H-pyrido[1,2-a]pyrimidine-2-carboxamide], the figure is 2.78 µM; as for `Cc1ccc2nc(C(CO)NC(=O)c3cccc4[nH]ncc34)cn2c1` (centres unmarked) [Compound 30, N-(2-hydroxy-1-{6-methylimidazo[1,2-a]pyridin-2-yl}ethyl)-1H-indazole-4-carboxamide], 8.52 µM; as for `O=C(c1cccc2[nH]ncc12)N1CC=C(c2cn3ccccc3n2)C1` [Compound 31, 4-(3-{imidazo[1,2-a]pyridin-2-yl}-2,5-dihydro-1H-pyrrole-1-carbonyl)-1H-indazole], 9.35 µM.
The same measure, in the same setting: then `O=C(NCc1cn2cc(NCc3cccnc3)ccc2n1)c1cccc2[nH]ncc12` [Compound 32, N-[(6-{[(pyridin-3-yl)methyl]amino}imidazo[1,2-a]pyridin-2-yl)methyl]-1H-indazole-4-carboxamide], with 7.34 µM; and `Cn1cnc(CNc2ccc3nc(CNC(=O)c4cccc5[nH]ncc45)cn3c2)c1` [Compound 33, N-[(6-{[(1-methyl-1H-imidazol-4-yl)methyl]amino}imidazo[1,2a]pyridin-2-yl)methyl]-1H-indazole-4-carboxamide], with 5.87 µM; and `COc1cccc(-c2ccc3nc(CNC(=O)c4cccc5[nH]ncc45)cn3c2)c1` [Compound 34, N-{[6-(3-methoxyphenyl)imidazo[1,2-a]pyridin-2-yl]methyl}-1H-indazole-4-carboxamide], with 5.35 µM.
For the compound `O=C(NCc1cn2cc(-c3ccn[nH]3)ccc2n1)c1cccc2[nH]ncc12` [Compound 35, N-{[6-(1H-pyrazol-5-yl)imidazo[1,2-a]pyridin-2-yl]methyl}-1H-indazole-4-carboxamide], the 50% inhibitory concentration (IC50) under setting [1] worked out at 15.8 µM.
On the same count and under the same terms, as for `O=C(NCc1cn2cc(-c3cccc(Cl)c3)ccc2n1)c1cccc2[nH]ncc12` [Compound 36], the figure is 3.91 µM; as for `O=C(NCc1cn2cc(Nc3cccnc3)ccc2n1)c1cccc2[nH]ncc12` [Compound 37, N-({6-[(pyridin-3-yl)amino]imidazo[1,2-a]pyridin-2-yl}methyl)-1H-indazole-4-carboxamide], 4.74 µM.
On the same count and under the same terms, as for `O=C(NCc1cn2cc(CN3CCNCC3)ccc2n1)c1cccc2[nH]ncc12` [Compound 38, N-({6-[(piperazin-1-yl)methyl]imidazo[1,2-a]pyridin-2-yl}methyl)-1H-indazole-4-carboxamide], the figure is 5.44 µM; as for `NCc1ccc2nc(CNC(=O)c3cccc4[nH]ncc34)cn2c1` [Compound 39, N-{[6-(aminomethyl)imidazo[1,2-a]pyridin-2-yl]methyl}-1H-indazole-4-carboxamide], 1.47 µM.
Same read-out and setting: as for `CC(=O)NCc1ccc2nc(CNC(=O)c3cccc4[nH]ncc34)cn2c1` [Compound 40, N-{[6-(acetamidomethyl)imidazo[1,2-a]pyridin-2-yl]methyl}-1H-indazole-4-carboxamide], the figure is 7.39 µM; as for `Cc1ccc2nc(COC(=O)c3cccc4[nH]ncc34)cn2c1` [Compound 41, {6-methylimidazo[1,2-a]pyridin-2-yl}methyl 1H-indazole-4-carboxylate hydrochloride], 1.34 µM; as for `O=C(NCc1cn2cc(CO)ccc2n1)c1cccc2[nH]ncc12` [Compound 42], 6.26 µM.
For `O=C(NCc1cn2cc(O)ccc2n1)c1cccc2[nH]ncc12` [Compound 43, N-({6-hydroxyimidazo[1,2-a]pyridin-2-yl}methyl)-1H-indazole-4-carboxamide], the IC50 under setting [1] was 1.29 µM.

In general, IC50 refers to the midpoint of a concentration-inhibition curve.

For the origin of these results see patent publication US12358915B2, “METTL3 inhibitory compounds” (STORM THERAPEUTICS LTD., priority 2019, dated 2025).
